Test results as given in paper PMC4868737, “BAY 1024767 blocks androgen receptor mutants found in castration-resistant prostate cancer patients” (Oncotarget, 2016).

Tests used:
[1] = Unbound plasma concentrations after multiple oral doses in male SCID mice; format: in vivo, mouse; conditions: multiple oral doses of 50 mg/kg every second day
Description: Pharmacokinetic profiles in mouse.
indicate in vitro unbound anti-proliferative GI50 values measured in VCaP cells. Unbound concentrations -/+ SD for 2-3
(1 picture or pasted object on this page, not shown here)

AR L701H = AR L701H (Homo sapiens, UniProt P10275, L701H/L702H); assay: cell-based; conditions: IC50 (antagonistic activity)

## CC(C)(O)COc1ccc(CN2C(=S)N(c3ccc(C#N)c(C(F)(F)F)c3)C(=O)C2(C)C)cn1 [BAY 1024767]
[1]
  unbound plasma concentrations versus unbound anti-proliferative GI50 in VCaP cells: remained over the unbound anti-proliferative GI50 values
AR L701H; R1881 1 nM
  IC50: 718 nM
AR L701H; R1881 10 nM
  IC50: 1380 nM
